Assays:
[1] = system: pre-diabetes; conditions: metformin therapy, background statement; cited from earlier work
[2] = system: models of insulin resistance; assay: Deuterated water production from deuterated glucose in models of insulin resistance, response to insulin-sensitizing therapies; type: in vivo; conditions: response to administration of insulin-sensitizing therapies in models of insulin resistance
Source text: Accordingly, the maintenance of normal absolute heavy water production in the face of insulin resistance was highly informative—“normal” heavy water production in this setting represented sufficiency (adequacy) of the pancreatic beta-cell response to the insulin resistance present. […] Full characterization of DM2 susceptibility and progression is thereby enabled through a simple, easily performed and widely usable test.

## CN(C)C(=N)N=C(N)N [metformin]
[1]
  pancreatic insulin secretion: improve pancreatic insulin secretion
  progression to DM2: prevent progression to DM2
[2]
  deuterated water production: increased
